The test system of the experiment is proteasome. Kind of experiment: Cellular proteasome inhibition test: accumulation of 4Ub-Luc reporter (luciferase activity) in DLD-1 4Ub-Luc cell line. In kind it is cell-based, human. Particulars: DLD-1 4Ub-Luc cells, 8 hours, epoxomicin = 100%. The protocol: Biological tests were carried out according to protocols described in the following articles: Ausseil F. et al. J. Biomol Screen. 2007, 12, 106-116 and Vandenberghe I. et al. Biochemical Pharmacology 2008, 76, 453-462.
In order to select novel proteasome inhibitor compounds, it is necessary to indirectly measure the activity of this proteasome within cells. To this end, we constructed a stable cell line, DLD-1 4Ub-Luc, arising from a human colon cancer cell line, which produces a chimeric reporter protein called 4Ub-Luc. This protein is a fusion between a 4-ubiquitin (4Ub) label and luciferase (Luc). This label is capable to direct every proteins that carry it toward the proteasome. The 4Ub-Luc protein is thus efficiently degraded by the proteasome, in contrast to the “wild” non-fused Luc protein. When the DLD-1 4Ub-Luc cell line is treated with a proteasome inhibitor, the fusion protein is much less efficiently degraded and accumulates in the cell. This accumulation is detected by an increase in luciferase activity in the treated extract compared to the extract from untreated cells. The control consists of verifying that the inhibitor has no effect on accumulation of the wild Luc protein produced by the stable DLD-1 RF cell line. For both cell lines and for each product an induction factor is determined for the product tested (or the reference) corresponding to the ratio between the luciferase activities measured in cells treated with this product (or the reference) and cells treated with solvent alone.
The product's activity is then defined by its relative induction factor, i.e., the ratio of its induction factor (IF % luminescence) to that of the reference molecule epoxomicin (IF=100%; see data presented in the table below).
Thus, the test established by Pierre-Fabre is a cellular test that has the advantage, compared to a purely enzymatic test, of detecting only products capable of penetrating the cell.
Two cell lines are used for this test: DLD-1 RF and DLD-1 4Ub-Luc. The culture medium used is as follows: • MEM • 5% fetal calf serum • 5 ml of penicillin-streptomycin • 2.5 ml of FUNGIZONE® (Amphotericin B) • 10 ml of […]
Day 1: Inoculate white 96-well culture-treated plates (PerkinElmer White ViewPlate, product no. 6005181) with 100 μl of 1·10^5 c/ml cell suspension per well. Incubate for 24 hours so that the cells adhere. On each plate five columns will be inoculated with DLD-1 4Ub-Luc and five others with DLD-1 RF according to diagram 1 below.
Day 2: Remove the medium by turning the plates upside down on cotton, and then carry out the treatment with the compounds of the invention, with solvent alone or with a reference compound such as epoxomicin. […]
The columns are paired (examples 2 and 8, 3 and 9, 4 and 10 and 5 and 11) and treated with the same compound. Columns 6 and 7 receive the experimental control, namely 0.1% DMSO in culture medium for wells B, C, D, and E of columns 6 and 7, and the positive control (10^−7 M epoxomicin) in wells F and G.
After incubation, turn the plate upside down on cotton to empty the wells, rinse with 50 μl of PBS to remove any trace of the cytotoxin tested and then add 50 μl of 5× passive lysis buffer (Promega, product no. E1941) diluted to ⅕ in water. Shake energetically using a plate shaker for 5 to 10 minutes at room temperature before freezing at −20° C.
Luciferase activity is measured using a Luciferase Assay System 10-Pack kit (Promega, product no. E1501).
On the day luciferase activity is to be measured, defrost the plates and wait until they have returned to room temperature. The optimal temperature for luciferase activity is 20-25° C.
Reconstitute the firefly luciferase substrate by defrosting the buffer and then adding 10 ml of buffer to the bottle containing the freeze-dried substrate. Wait until the solution is at room temperature before beginning the assay. […]

[1] abbreviates: concentration tested 5 · 10^−6 M.
Where [2] appears, read: concentration tested 5 · 10^−7 M.

The structures appear in SMILES notation.

As for `C=C(C(=O)[C@H](O)[C@@H](C)[C@H]1[C@@H](OC(C)=O)C[C@@]2(C)[C@@H]3CC[C@H]4[C@H](C)C(=O)C=C[C@@]45C[C@@]35CC[C@]12C)[C@@H](C)CO` [Compound 1, 22-deacetyl-neoboutomellerone], the “relative induction factor (IF % luminescence) versus epoxomicin” value is, setting by setting: under setting [1], 28%; under setting [2], 1%; (concentration tested 10^−5 M) 3%; (concentration tested 10^−6 M) 45%.
Turning to `C=C(C(=O)[C@H](OC(C)=O)[C@@H](C)[C@H]1[C@@H](OC(C)=O)C[C@@]2(C)[C@@H]3CC[C@H]4[C@H](C)C(=O)C=C[C@@]45C[C@@]35CC[C@]12C)[C@@H](C)CO` [Compound 2, Neoboutomellerone], the “relative induction factor (IF % luminescence) versus epoxomicin” value is, setting by setting: under setting [1], 37%; under setting [2], 2%; (concentration tested 10^−5 M) 4%; (concentration tested 10^−6 M) 48%.
As to `C=C(C(=O)[C@H](OC(C)=O)[C@@H](C)[C@H]1[C@@H](OC(C)=O)C[C@@]2(C)C3CCC4C(C)C(=O)C=CC45CC35CC[C@]12C)[C@@H](C)CO` (stereo partly drawn) [Compound 4, Diastereoisomer of Ring A of Neoboutomellerone], the “relative induction factor (IF % luminescence) versus epoxomicin” value by setting is: under setting [1], 84%; (concentration tested 10^−5 M) 24%; (concentration tested 10^−6 M) 2%.
Turning to `C=C(C(=O)[C@H](OC(C)=O)[C@@H](C)[C@H]1[C@@H](OC(C)=O)C[C@@]2(C)[C@@H]3C[C@@H](O)[C@H]4[C@H](C)C(=O)C=C[C@@]45C[C@@]35CC[C@]12C)[C@@H](C)CO` [Compound 6, 6-hydroxy-neoboutomellerone], the “relative induction factor (IF % luminescence) versus epoxomicin” value came out at 31% under setting [1] and 5% (concentration tested 10^−6 M).
On to `C=C(C(=O)[C@H](O)[C@@H](C)[C@H]1[C@@H](OC(C)=O)C[C@@]2(C)[C@@H]3CC[C@H]4[C@H](C)C(=O)C=C[C@@]45C[C@@]35CC[C@]12C)C(C)C` [Compound 7, 22-deacetyl,26-dehydroxy-neoboutomellerone], for which the “relative induction factor (IF % luminescence) versus epoxomicin” value under setting [1] came out at 65%, the “relative induction factor (IF % luminescence) versus epoxomicin” value (concentration tested 10^−5 M) was found to be 21% and the “relative induction factor (IF % luminescence) versus epoxomicin” value (concentration tested 10^−6 M) is listed as 2%.
The matching figures for `C=C(C(=O)[C@H](OC(C)=O)[C@@H](C)[C@H]1[C@@H](OC(C)=O)C[C@@]2(C)[C@@H]3CC[C@H]4[C@H](C)C(=O)C=C[C@@]45C[C@@]35CC[C@]12C)C(C)C` [Compound 8, 26-dehydroxy-neoboutomellerone]: 74%, 19% and 7%.
As for `CC(=O)O[C@H]1C[C@@]2(C)[C@@H]3CC[C@H]4[C@H](C)C(=O)C=C[C@@]45C[C@@]35CC[C@]2(C)[C@H]1[C@H](C)[C@@H](OC(C)=O)C(=O)C=C(C)C` [Compound 9, 26-dehydroxy,24,25-dehydro-nor-neoboutomellerone], the “relative induction factor (IF % luminescence) versus epoxomicin” value runs as follows: under setting [1], 34%; (concentration tested 10^−5 M) 44%; (concentration tested 10^−6 M) 1%.
The matching figures for `CC(=O)O[C@H]1C[C@@]2(C)[C@@H]3CC[C@H]4[C@H](C)C(=O)C=C[C@@]45C[C@@]35CC[C@]2(C)[C@H]1[C@H](C)[C@@H](O)C(=O)C=C(C)C` [Compound 10, 22-deacetyl,26-dehydroxy,24,25-dehydro-nor-neoboutomellerone]: 5%, 53% and 1%.
Consider `C=C(C(=O)[C@H](OC(C)=O)[C@@H](C)[C@H]1[C@@H](OC(C)=O)C[C@@]2(C)[C@@H]3CC[C@H]4[C@H](C)C(=O)CC[C@@]45C[C@@]35CC[C@]12C)[C@@H](C)CO` [Compound 11, 1,2-dihydro-neoboutomellerone], for which the “relative induction factor (IF % luminescence) versus epoxomicin” value is recorded as 45% under setting [1], 48% (concentration tested 10^−5 M) and 1% (concentration tested 10^−6 M).
For `C=C(C(=O)[C@H](OC(C)=O)[C@@H](C)[C@H]1[C@@H](OC(C)=O)C[C@@]2(C)[C@@H]3[C@H]4O[C@H]4[C@H]4[C@H](C)C(=O)C=C[C@@]45C[C@@]35CC[C@]12C)[C@@H](C)CO` [Compound 12, 6,7-epoxy-neoboutomellerone], in that order: 72%, 15% and 3%.
Turning to `C=C(C(=O)C(OC(C)=O)C(C)[C@H]1[C@@H](OC(C)=O)C[C@@]2(C)[C@@H]3CC[C@H]4[C@H](C)C(=O)C=C[C@@]45C[C@@]35CC[C@]12C)C(C)CO` (stereo partly drawn) [Compound 13, Diastereoisomer on the Side Chain of Neoboutomellerone], the “relative induction factor (IF % luminescence) versus epoxomicin” value is, setting by setting: under setting [1], 71%; (concentration tested 10^−5 M) 60%; (concentration tested 10^−6 M) 2%.
For `C=C(C(=O)[C@H](O)[C@@H](C)[C@H]1[C@@H](OC(C)=O)C[C@@]2(C)[C@@H]3CC[C@H]4[C@H](C)C(=O)CC[C@@]45C[C@@]35CC[C@]12C)[C@@H](C)CO` [Compound 14, 1,2-dihydro-22-deacetyl-neoboutomellerone], in that order: 10%, 77% and 1%.
Consider `C=C(C(=O)[C@H](O)[C@@H](C)[C@H]1[C@@H](OC(C)=O)C[C@@]2(C)[C@@H]3CC[C@H]4[C@H](C)C(=O)C[C@H](O)[C@@]45C[C@@]35CC[C@]12C)[C@@H](C)CO` [Compound 15, 1-hydroxy-2-hydro-22-deacetyl-neoboutomellerone], for which the “relative induction factor (IF % luminescence) versus epoxomicin” value worked out at 11% under setting [1], 74% (concentration tested 10^−5 M) and 2% (concentration tested 10^−6 M).
As for `C=C(C(=O)[C@H](O)[C@@H](C)[C@H]1[C@@H](OC(C)=O)C[C@@]2(C)[C@@H]3C[C@@H](O)[C@H]4[C@H](C)C(=O)C=C[C@@]45C[C@@]35CC[C@]12C)[C@@H](C)CO` [Compound 16, 6-hydroxy-22-deacetyl-neoboutomellerone], the “relative induction factor (IF % luminescence) versus epoxomicin” value was 35% under setting [1] and 1% (concentration tested 10^−6 M).
As to `C=C(C(=O)[C@H](O)[C@@H](C)[C@H]1[C@@H](OC(C)=O)C[C@@]2(C)C3CCC4[C@H](C)C(=O)C=C[C@@]45C[C@@]35CC[C@]12C)[C@@H](C)COC(C)=O` (stereo partly shown) [Compound 17, 26-acetyl-22-deacetyl-neoboutomellerone], the “relative induction factor (IF % luminescence) versus epoxomicin” value runs as follows: under setting [1], 29%; under setting [2], 2%; (concentration tested 10^−5 M) 6%; (concentration tested 10^−6 M) 26%.
